{
  "source": "patent US10813920B2",
  "about": "“Drug for treating corneal endothelium by promoting cell proliferation or inhibiting cell damage” (THE DOSHISHA, priority 2013, dated 2020)",
  "tested_on": "human corneal endothelial cells",
  "assay": "Na+/K+-ATPase and ZO-1 immunostaining (pumping and barrier function markers)",
  "assay_type": "cell-based",
  "conditions": "1, 3, 10 μM; immunostaining after 20 days",
  "experimental": "*Human corneal endothelial cells (HCEC, where the cells were obtained and culturing method thereof): HCEC was cultured as follows. In short, Descemet's membrane including corneal endothelial cells was peeled off from a corneal for research purchased from the Seattle Eye Bank, and the corneal endothelial cells were mechanically peeled off with a basal membrane. After collagenase (ROCHE catalog No: 10 103 586 001) was used to detach and collect the corneal endothelial cell from the basal membrane (typically 1 mg/mL collagenase A (Roche Applied Science) was used for treatment at 37° C. for 2 hours), the cells were subjected to primary culture. The medium used was Opti-MEM I Reduced-Serum Medium, Liquid (INVITROGEN catalog No.: 31985-070) to which 8% fetal bovine serum (FBS) (BIOWEST, catalog No.: S1820-500), […] of CaCl2.2H2O (SIGMA catalog No.: C7902-500G), 0.08% of chondroitin sulfate (SIGMA catalog No.: C9819-5G), 20 μg/ml of ascorbic acid (SIGMA catalog No.: A4544-25G), 50 μg/ml of gentamicin (INVITROGEN catalog No.: 15710-064) and 5 ng/ml of EGF (INVITROGEN catalog No.: PHG0311) were added and acclimated for a 3T3 feeder cell. […] Immunostaining was applied to the cells for observation with a fluorescence microscope. […]",
  "data": [
    {"smiles": "C[S+]([O-])c1ccc(-c2nc(-c3ccncc3)c(-c3ccc(F)cc3)[nH]2)cc1", "note": "(stereo not shown) [SB203580, 4-(4-fluorophenyl)-2-(4-methylsulfinylphenyl)-5-(4-pyridyl)-1H-imidazole]", "values": [
      {"measurement": "expression of Na+/K+-ATPase and ZO-1", "result": "express Na^+/K^+-ATPase and ZO-1 and to maintain normal functions in all cells"}
    ]}
  ]
}
